# Like-named read-outs stand apart in the source and are kept apart here. Peptide text beside a SMILES is read from it.
# How the values were obtained:
# [1] = Acrylamide quenching of W30 tryptophan fluorescence; format: physicochemical
# [2] = for F/F0 max: 1:1 POPG:POPC LUVs; for F/F0 max / λmax: HEB, 100 mM K+
# Kv2.1 channel = target: T1, Kv2.1 channel (Rattus norvegicus, UniProt P15387, A366D/I383M/K360G/K386V/S367A/T359S/Y384T); assay: Two-electrode voltage-clamp recording of Kv2.1 expressed in oocytes; format: cell-based
# T1 sequence (P15387 1-857 T359S/K360G/A366D/S367A/I383M/Y384T/K386V): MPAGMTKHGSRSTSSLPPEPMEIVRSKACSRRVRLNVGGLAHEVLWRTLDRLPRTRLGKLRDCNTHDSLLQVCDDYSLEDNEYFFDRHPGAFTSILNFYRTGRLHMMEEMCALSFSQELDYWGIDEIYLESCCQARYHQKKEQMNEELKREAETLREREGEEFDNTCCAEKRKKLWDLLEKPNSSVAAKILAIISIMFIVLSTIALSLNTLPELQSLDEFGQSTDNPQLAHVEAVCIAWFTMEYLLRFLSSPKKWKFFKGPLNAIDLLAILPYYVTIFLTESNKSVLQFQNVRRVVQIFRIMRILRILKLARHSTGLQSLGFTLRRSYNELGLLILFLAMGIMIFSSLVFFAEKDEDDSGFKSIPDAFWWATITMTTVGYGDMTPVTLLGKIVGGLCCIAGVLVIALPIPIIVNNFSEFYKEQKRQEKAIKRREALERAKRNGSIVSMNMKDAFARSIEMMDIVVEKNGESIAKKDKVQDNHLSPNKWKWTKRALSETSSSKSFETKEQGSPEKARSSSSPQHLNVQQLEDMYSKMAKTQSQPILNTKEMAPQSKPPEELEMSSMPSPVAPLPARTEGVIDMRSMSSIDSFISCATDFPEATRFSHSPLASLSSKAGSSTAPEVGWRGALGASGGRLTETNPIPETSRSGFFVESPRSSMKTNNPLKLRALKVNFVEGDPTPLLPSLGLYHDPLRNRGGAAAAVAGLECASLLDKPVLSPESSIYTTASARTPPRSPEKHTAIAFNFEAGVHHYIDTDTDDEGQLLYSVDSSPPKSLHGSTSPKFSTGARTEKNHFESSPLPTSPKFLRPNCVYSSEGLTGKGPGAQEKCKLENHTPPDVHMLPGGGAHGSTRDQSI
# [3] = toxin:lipid 2 μM:0.9 mM, HEB pH 7, n = 3
compound,measurement,setting,value
"CC(C)C[C@@H]1NC(=O)[C@H](Cc2c[nH]cn2)NC(=O)[C@H](CCCCN)NC(=O)[C@@H]2CSSC[C@H](NC(=O)[C@@H](N)CCC(=O)O)C(=O)N[C@@H](CCCNC(=N)N)C(=O)N[C@@H](Cc3ccc(O)cc3)C(=O)N[C@@H](CC(C)C)C(=O)N[C@@H](Cc3ccccc3)C(=O)NCC(=O)NCC(=O)N[C@H]3CSSC[C@H](NC(=O)CNC1=O)C(=O)N[C@@H](CCCCN)C(=O)N[C@@H](Cc1ccccc1)C(=O)N[C@@H](CCCNC(=N)N)C(=O)N[C@@H](CC(=O)O)C(=O)N[C@@H](CCCCN)C(=O)N[C@@H](Cc1ccc(O)cc1)C(=O)N[C@H](C(=O)N[C@@H](C)C(=O)N[C@@H](Cc1c[nH]c4ccccc14)C(=O)N[C@@H](CC(=O)O)C(=O)N[C@@H](Cc1ccccc1)C(=O)N[C@H](C(=O)N[C@@H](Cc1ccccc1)C(=O)N[C@@H](CO)C(=O)O)[C@@H](C)O)CSSC[C@H](NC(=O)[C@H](CC(=O)O)NC(=O)[C@H](CO)NC(=O)[C@H]([C@@H](C)O)NC(=O)[C@H]([C@@H](C)O)NC(=O)[C@H](CCCCN)NC3=O)C(=O)N2 [Hanatoxin] (HELM PEPTIDE1{E.C.R.Y.L.F.G.G.C.K.T.T.S.D.C.C.K.H.L.G.C.K.F.R.D.K.Y.C.A.W.D.F.T.F.S}$PEPTIDE1,PEPTIDE1,2:R3-16:R3|PEPTIDE1,PEPTIDE1,9:R3-21:R3|PEPTIDE1,PEPTIDE1,15:R3-28:R3$$$V2.0; N-terminus and C-terminus assumed)","Stern-Volmer constant (KSV), Solution","[1]; toxin 2 μM in solution, no lipid vesicles, n = 3",48 ± 3 M⁻¹
same,"Stern-Volmer constant (KSV), POPC, HEB",[1]; [3],10 ± 0.5 M⁻¹
same,"Stern-Volmer constant (KSV), POPC:POPG, HEB",[1]; [3],7 ± 0.1 M⁻¹
same,"Stern-Volmer constant (KSV), POPC:POPG, PB","[1]; toxin:lipid 2 μM:0.9 mM, PB (10 mM HEPES, 100 mM KCl, 1 mM MgCl2, 0.3 mM CaCl2, pH 7.6), n = 3",18 ± 0.2 M⁻¹
same,"Stern-Volmer constant (KSV), POPC, PB","[1]; toxin:lipid 2 μM:0.9 mM, PB pH 7.6, n = 3",23 ± 0.7 M⁻¹
same,F/F0 max,"[2]; 1 mM free Ca2+, n = 3",2.1 ± 0.1
same,F/F0 max,"[2]; pH 7, n = 3",2.0 ± 0.02
same,λmax,"[2]; +POPG:POPC vesicles, 1 mM free Ca2+",350.0 nm
same,λmax,"[2]; +POPG:POPC vesicles, pH 7",344.3 nm
same,Kx,"[2]; as printed in legend, anionic vesicles, HEB with 100 mM KCl, n = 3",(5.3 ± 0.03) × 10^5
same,λmax,"[2]; toxin in solution without lipid, 1 mM free Ca2+",353.7 nm
same,blue shift in fluorescence emission spectrum,"[2]; upon addition of 1:1 POPC:POPG vesicles (2.4 mM), HEB pH 7",10.9 nm
same,effect on Kv2.1 channel opening,"Kv2.1 channel; 4 μM hanatoxin in external solution, oocytes, n = 3",pronounced inhibition of opening at negative voltages
same,time for channel activity to recover to control values after toxin removal,"Kv2.1 channel; control (untreated) oocytes, 500 nM hanatoxin","~1,000 s"
